Measured values reported in patent US8076367B2, “Benzimidazolylidene propane-1,3-dione derivative or salt thereof” (Astellas Pharma Inc., priority 2004, dated 2011).

Columns and labels:
[1] = Measurement of blood concentration of a compound by ex vivo binding assay; settings: Wistar male rat, oral 10 mg/kg in 0.5% MC, serum 2 hours after administration, read-out: Blood compound concentration (B) 2 hour value
Procedure: Each compound to be tested was dissolved or suspended in 0.5% methyl cellulose (MC) solution and was orally administered to Wistar male rat of 9 weeks of age (SLC Japan) at a dose of 10 mg/kg. Blood sample was collected after 2 hours of the administration to obtain serum.
Each serum sample was mixed with the same volume of methanol to remove protein and optionally diluted with an assay buffer, and then the ^125I-D-Trp^6-LHRH binding inhibition ratio was measured in the same manner as in Test Example 1. Using a separately prepared calibration curve on the concentration-binding inhibition of compounds to be tested, blood concentration of each compound (μM) was calculated from the binding inhibition ratio.

human GnRH receptor = target: T1, human GnRH receptor (Homo sapiens, UniProt P30968); assay: Test on GnRH receptor antagonism (125I-D-Trp6-LHRH binding inhibition); settings: inhibition of 125I-D-Trp6-LHRH binding to human GnRH receptor
T1 sequence (P30968 1-328): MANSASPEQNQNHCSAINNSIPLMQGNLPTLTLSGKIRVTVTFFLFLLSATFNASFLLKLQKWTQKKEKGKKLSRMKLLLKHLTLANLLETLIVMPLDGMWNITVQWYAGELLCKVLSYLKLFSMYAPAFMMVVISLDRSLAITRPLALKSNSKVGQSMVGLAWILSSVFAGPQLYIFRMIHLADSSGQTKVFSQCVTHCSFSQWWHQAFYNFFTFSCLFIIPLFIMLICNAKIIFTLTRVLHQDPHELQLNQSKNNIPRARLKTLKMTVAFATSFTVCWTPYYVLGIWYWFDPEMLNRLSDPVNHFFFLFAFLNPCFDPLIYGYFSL
Excerpt: GnRH receptor antagonism test method described on p. 56 of the Patent Reference 1.

[2] = Test on metabolic stability in human liver microsome; format: in vitro ADME; settings: human liver microsome 0.2 mg protein/ml, 37° C. 15 minutes; compared with Ex 40, Ex 251, Ex 239 of Patent Reference 1
Cytochrome P450 (CYP3A4) = Cytochrome P450 (CYP3A4) (Homo sapiens, UniProt P08684); assay: Cytochrome P450 (CYP3A4) enzyme inhibition, Inhibition Test II (preincubation); format: in vitro ADME; settings: 30 minutes preincubation with human liver microsome and NADPH, then midazolam 20 minutes; compared with Ex 40, Ex 251, Ex 239 of Patent Reference 1
Cytochrome P450 (CYP3A4), sequence (P08684 whole entry): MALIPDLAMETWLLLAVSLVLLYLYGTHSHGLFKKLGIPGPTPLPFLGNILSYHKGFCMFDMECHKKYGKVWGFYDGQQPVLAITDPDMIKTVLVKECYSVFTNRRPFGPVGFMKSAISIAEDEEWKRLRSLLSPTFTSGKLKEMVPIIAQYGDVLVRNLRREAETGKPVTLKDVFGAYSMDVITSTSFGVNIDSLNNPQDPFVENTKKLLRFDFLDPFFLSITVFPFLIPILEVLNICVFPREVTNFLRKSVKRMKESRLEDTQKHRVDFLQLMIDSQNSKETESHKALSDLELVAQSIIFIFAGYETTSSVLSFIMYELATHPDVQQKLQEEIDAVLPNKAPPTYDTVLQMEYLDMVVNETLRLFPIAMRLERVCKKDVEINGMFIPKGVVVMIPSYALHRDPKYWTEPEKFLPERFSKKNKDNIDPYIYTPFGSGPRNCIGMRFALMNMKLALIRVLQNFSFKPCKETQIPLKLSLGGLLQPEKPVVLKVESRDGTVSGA
Procedure: Thereafter, midazolam as the substrate was added thereto and incubated at 37° C. for 20 minutes.

SMILES: O=C(C(C(=O)c1cccc(C(O)CO)c1)=C1Nc2ccccc2N1)c1cc(F)cc(Cl)c1 (stereo not drawn) [Ex 2-3]
- concentration at 2 h [1]: 710 nM
- IC50 (human GnRH receptor): 0.082 nM

SMILES: O=C(C(C(=O)c1cc(F)c(F)c(F)c1)=C1Nc2ccccc2N1)c1cccc(C(O)CO)c1 (stereo not drawn) [Ex 2-4]
- metabolic stability in human liver microsome (in vitro clearance) [2]: superior metabolic stability
- concentration at 2 h [1]: 1310 nM
- IC50 (human GnRH receptor): 0.17 nM
- melting point: 139 to 140 °C
- Inhibitory activity II (CYP3A4) (Cytochrome P450 (CYP3A4)): superior actions

SMILES: O=C(C(C(=O)c1cccc(C(O)CO)c1)=C1Nc2ccc(F)cc2N1)c1cc(F)cc(F)c1 (stereo not drawn) [Ex 2-5]
- concentration at 2 h [1]: 820 nM
- IC50 (human GnRH receptor): 0.1 nM

SMILES: O=C(C(C(=O)c1cccc(C(O)CO)c1)=C1Nc2ccccc2N1)c1cccc(F)c1 (stereo not drawn) [Ex 2-7]
- concentration at 2 h [1]: 1650 nM
- IC50 (human GnRH receptor): 0.19 nM

SMILES: O=C(C(C(=O)c1cccc(C(O)CO)c1)=C1Nc2cc(F)c(Cl)cc2N1)c1cc(F)cc(F)c1 (stereo not drawn) [Ex 2-12]
- concentration at 2 h [1]: 920 nM
- IC50 (human GnRH receptor): 0.15 nM

SMILES: O=C(C(C(=O)c1cc(C(O)CO)ccc1F)=C1Nc2ccccc2N1)c1cc(F)cc(F)c1 (stereo not drawn) [Ex 2-20]
- concentration at 2 h [1]: 1140 nM
- IC50 (human GnRH receptor): 0.2 nM

SMILES: O=C(C(C(=O)c1cc(F)cc(F)c1F)=C1Nc2ccccc2N1)c1cccc(C(O)CO)c1 (stereo not drawn) [Ex 2-48]
- concentration at 2 h [1]: 2160 nM
- IC50 (human GnRH receptor): 0.22 nM
- melting point: 127 to 129 °C

SMILES: O=C(C(C(=O)c1cccc(C(O)CO)c1)=C1Nc2ccccc2N1)c1cccc(Cl)c1 (stereo not drawn) [Ex 2-50]
- concentration at 2 h [1]: 880 nM
- IC50 (human GnRH receptor): 0.12 nM

SMILES: O=C(C(C(=O)c1cccc([C@@H](O)CO)c1)=C1Nc2ccccc2N1)c1cccc(F)c1 [Ex 4-1, 2-(1,3-dihydro-2H-benzimidazol-2-ylidene)-1-{3-[(1R)-1,2-dihydroxyethyl]phenyl}-3-(3-fluorophenyl)propane-1,3-dione]
- metabolic stability in human liver microsome (in vitro clearance) [2]: superior metabolic stability
- concentration at 2 h [1]: 1360 nM
- IC50 (human GnRH receptor): 0.093 nM
- melting point: 190 to 191 °C
- Inhibitory activity II (CYP3A4) (Cytochrome P450 (CYP3A4)): superior actions

SMILES: O=C(C(C(=O)c1cccc([C@@H](O)CO)c1F)=C1Nc2ccccc2N1)c1cccc(F)c1 [Ex 4-4]
- metabolic stability in human liver microsome (in vitro clearance) [2]: superior metabolic stability
- concentration at 2 h [1]: 1040 nM
- IC50 (human GnRH receptor): 0.1 nM
- melting point: 197 to 198 °C
- Inhibitory activity II (CYP3A4) (Cytochrome P450 (CYP3A4)): superior actions

SMILES: Cc1c(C(=O)C(C(=O)c2cc(F)cc(F)c2)=C2Nc3ccccc3N2)cccc1[C@@H](O)CO [Ex 4-5]
- metabolic stability in human liver microsome (in vitro clearance) [2]: superior metabolic stability
- concentration at 2 h [1]: 3740 nM
- IC50 (human GnRH receptor): 0.12 nM
- melting point: 228 to 229 °C
- Inhibitory activity II (CYP3A4) (Cytochrome P450 (CYP3A4)): superior actions

SMILES: CCCCc1c(C(=O)C(C(=O)c2cccc(F)c2)=C2Nc3ccccc3N2)cccc1[C@@H](O)CO [Ex 4-8]
- concentration at 2 h [1]: 1790 nM
- IC50 (human GnRH receptor): 0.081 nM
- melting point: 132 to 133 °C

SMILES: O=C(C(C(=O)c1cccc([C@@H](O)CO)c1Cl)=C1Nc2ccccc2N1)c1cccc(Cl)c1 [Ex 4-15]
- concentration at 2 h [1]: 1440 nM
- IC50 (human GnRH receptor): 0.076 nM
- melting point: 134 to 136 °C

SMILES: O=C(C(C(=O)c1cccc([C@@H](O)CO)c1Cl)=C1Nc2ccccc2N1)c1cccc(F)c1 [Ex 4-21]
- metabolic stability in human liver microsome (in vitro clearance) [2]: superior metabolic stability
- concentration at 2 h [1]: 2170 nM
- IC50 (human GnRH receptor): 0.24 nM
- melting point: 125 to 127 °C
- Inhibitory activity II (CYP3A4) (Cytochrome P450 (CYP3A4)): superior actions

SMILES: O=C(C(C(=O)c1ccc(F)c([C@@H](O)CO)c1)=C1Nc2ccccc2N1)c1cc(F)cc(F)c1 [Ex 4-22]
- metabolic stability in human liver microsome (in vitro clearance) [2]: superior metabolic stability
- concentration at 2 h [1]: 2170 nM
- IC50 (human GnRH receptor): 0.13 nM
- melting point: 147 to 149 °C
- Inhibitory activity II (CYP3A4) (Cytochrome P450 (CYP3A4)): superior actions

SMILES: Cc1c(C(=O)C(C(=O)c2cccc(Cl)c2)=C2Nc3ccccc3N2)cccc1[C@@H](O)CO [Ex 4-23]
- concentration at 2 h [1]: 1110 nM
- IC50 (human GnRH receptor): 0.18 nM

SMILES: Cc1cccc(C(=O)C(C(=O)c2cccc([C@@H](O)CO)c2C)=C2Nc3ccccc3N2)c1 [Ex 4-25]
- metabolic stability in human liver microsome (in vitro clearance) [2]: superior metabolic stability
- concentration at 2 h [1]: 1390 nM
- IC50 (human GnRH receptor): 0.14 nM
- Inhibitory activity II (CYP3A4) (Cytochrome P450 (CYP3A4)): superior actions

SMILES: Cc1c(C(=O)C(C(=O)c2ccccc2F)=C2Nc3ccccc3N2)cccc1[C@@H](O)CO [Ex 4-29]
- metabolic stability in human liver microsome (in vitro clearance) [2]: superior metabolic stability
- concentration at 2 h [1]: 6440 nM
- IC50 (human GnRH receptor): 0.19 nM
- melting point: 215 to 217 °C
- Inhibitory activity II (CYP3A4) (Cytochrome P450 (CYP3A4)): superior actions

SMILES: O=C(C(C(=O)c1cccc([C@@H](O)CO)c1Cl)=C1Nc2ccccc2N1)c1cc(F)cc(F)c1 [Ex 4-30]
- metabolic stability in human liver microsome (in vitro clearance) [2]: superior metabolic stability
- concentration at 2 h [1]: 1500 nM
- IC50 (human GnRH receptor): 0.1 nM
- melting point: 126 to 129 °C
- Inhibitory activity II (CYP3A4) (Cytochrome P450 (CYP3A4)): superior actions

SMILES: Cc1cccc(C(=O)C(C(=O)c2cccc([C@@H](O)CO)c2Cl)=C2Nc3ccccc3N2)c1 [Ex 4-32]
- concentration at 2 h [1]: 670 nM
- IC50 (human GnRH receptor): 0.12 nM

SMILES: O=C(C(C(=O)c1cccc([C@@H](O)CO)c1F)=C1Nc2ccccc2N1)c1cc(F)cc(F)c1 [Ex 4-33]
- concentration at 2 h [1]: 1590 nM
- IC50 (human GnRH receptor): 0.12 nM

SMILES: O=C(C(C(=O)c1cccc([C@@H](O)CO)c1)=C1Nc2ccccc2N1)c1cc(F)cc(F)c1 [Ex 13-2, 1-(3,5-difluorophenyl)-2-(1,3-dihydro-2H-benzimidazol-2-ylidene)-3-{3-[(1R)-1,2-dihydroxyethyl]phenyl}propane-1,3-dione]
- melting point: 189 to 190 °C
